Results on 2 compounds are retold here after patent publication US20030224416A1, “Schizophrenia related gene” (priority 2002, published 2003).

One assay concerns Kv3.1 α-subunit mRNA. Kind of assay: Experiment 1: in situ hybridization of Kv3.1 α-subunit mRNA in brain, chronic PCP rat model of schizophrenia with antipsychotic co-treatment. The format is in vivo. The following applies: for Kv3.1 α-subunit mRNA expression: PCP-Veh (PCP 2.24 mg/kg i.p.).
The next assay relates to Kv3.1 mRNA. Kind of assay: Experiment 2: in situ hybridisation of Kv3.1 mRNA in rat brain after chronic intermittent PCP (YRING model). The format is in vivo. The procedure: (§1) In a second experiment using different method for in situ hybridisation, the effect of chronic PCP treatment on Kv3.1, Kv3.2 and Kv3.3 mRNA were examined. […] Animals were treated according to the YRING model (FIG. 1) and killed by cervical dislocation 72 hours after the last exposure to PCP. The brains were stored at −70° C. until required.
(§2) 20 μm coronal sections were cut on a cryostat at −20° C. and collected onto poly-L-lysine coated slides. The sections were fixed, dehydrated and stored under ethanol at 4° C. until required. […] On the day of in situ hybridization, the sections from the chronic study were allowed to dry at room temperature then hybridized with the appropriate probe overnight at 42° C. The sections were then washed, dehydrated and air-dried before being exposed to x-ray film for 7-10 days.
(§3) The quantification of mRNA expression was carried out using computer-based densitometry (MCID 5). Bilateral relative optical density measurements were taken from duplicate sections from each animal (n=8-10 per treatment group for the chronic study). The results were analyzed using individual t-tests for each brain region. Statistical significance was defined as p<0.05, again after correction for multiple comparisons using the sequential Bonferroni correction factor.

The next assay has as its system Kv3.3 mRNA. Kind of assay: Experiment 2: in situ hybridisation of Kv3.3 mRNA in rat brain after chronic intermittent PCP (YRING model). The class given is in vivo. The procedure:
as §1, §2, §3

The subject of the next assay is Kv3.2 mRNA. Kind of assay: Experiment 2: in situ hybridisation of Kv3.2 mRNA in rat brain after chronic intermittent PCP (YRING model). The format is in vivo. The protocol:
as §1, §2, §3

The next assay deals with schizophrenia. The following applies: patients; cited from earlier work.
The mark [1] stands for this setting: ventral part of the reticular thalamic nucleus.

In the case of `c1ccc(C2(N3CCCCC3)CCCCC2)cc1` [PCP, phencyclidine], the “Kv3.1 α-subunit mRNA expression” value is 15.01 PSL/mm^2 in the assay with Kv3.1 α-subunit mRNA (ACg); 8.48 PSL/mm^2 with Kv3.1 α-subunit mRNA (AcbC); 10.62 PSL/mm^2 with Kv3.1 α-subunit mRNA (AcbS); 18.08 PSL/mm^2 in the assay on Kv3.1 α-subunit mRNA (Au1); 15.90 PSL/mm^2 in the assay with Kv3.1 α-subunit mRNA (CA1pd); 18.61 PSL/mm^2 in the assay with Kv3.1 α-subunit mRNA (CA2pd). The “Kv3.1 α-subunit mRNA expression” value in the assay with Kv3.1 α-subunit mRNA (CA3pd) is on record as 32.94 PSL/mm^2; with Kv3.1 α-subunit mRNA (DGgd) it was 38.63 PSL/mm^2; in the assay on Kv3.1 α-subunit mRNA (DLStr), 5.87 PSL/mm^2; with Kv3.1 α-subunit mRNA (IL), 12.28 PSL/mm^2; in the assay on Kv3.1 α-subunit mRNA (IO), 16.48 PSL/mm^2; in the assay on Kv3.1 α-subunit mRNA (M1), 15.88 PSL/mm^2. The “Kv3.1 α-subunit mRNA expression” value is reported as 14.38 PSL/mm^2 in the assay on Kv3.1 α-subunit mRNA (M2); 26.93 PSL/mm^2 with Kv3.1 α-subunit mRNA (MG); 24.34 PSL/mm^2 with Kv3.1 α-subunit mRNA (MM); 40.65 PSL/mm^2 in the assay with Kv3.1 α-subunit mRNA (Pir); 9.83 PSL/mm^2 with Kv3.1 α-subunit mRNA (PrL); 17.96 PSL/mm^2 with Kv3.1 α-subunit mRNA (RSa). The “Kv3.1 α-subunit mRNA expression” value is given as 20.38 PSL/mm^2 with Kv3.1 α-subunit mRNA (RSg); 12.82 PSL/mm^2 in the assay with Kv3.1 α-subunit mRNA (SN); 6.15 PSL/mm^2 in the assay with Kv3.1 α-subunit mRNA (VMStr); 19.85 PSL/mm^2 with Kv3.1 α-subunit mRNA (VO); 48.80 PSL/mm^2 in the assay with Kv3.1 α-subunit mRNA (dRt); 45.07 PSL/mm^2 in the assay with Kv3.1 α-subunit mRNA (vRt). The “change in Kv3.1 α-subunit mRNA expression after chronic PCP treatment” value in the assay on Kv3.1 α-subunit mRNA (dorsal part of the reticular nucleus of the thalamus (dRt)) is −15%; in the assay with Kv3.1 α-subunit mRNA (dorsolateral striatum (DLStr)) it was −16%; in the assay on Kv3.1 α-subunit mRNA (prelimbic region of the prefrontal cortex (PrL)) it was −31%. Moreover, the figures for the “change in Kv3.1 mRNA expression after chronic intermittent PCP” value in the assay with Kv3.1 mRNA (prelimbic cortex) and in the assay on Kv3.1 mRNA (setting [1]) were −23% and −19%, respectively. The “Kv3.1 mRNA expression change after chronic intermittent PCP” value in the assay with Kv3.1 mRNA (regions other than prelimbic cortex and vRt) is recorded as “No other changes were observed in any other regions”. Also, the “change in Kv3.3 mRNA expression after chronic intermittent PCP” value was “+21%” in the assay on Kv3.3 mRNA (anterodorsal thalamic nucleus), “+18%” with Kv3.3 mRNA (prelimbic cortex), “+14%” in the assay with Kv3.3 mRNA (ventral orbital cortex) and “+33%” in the assay with Kv3.3 mRNA (setting [1]). Moreover, the “Kv3.3 mRNA expression change after chronic intermittent PCP” value with Kv3.3 mRNA (regions other than prelimbic, ventral orbital cortex, AD, vRt) is listed as “No other changes were observed in any other regions”. Also, the “change in Kv3.2 mRNA expression after chronic intermittent PCP” value is given as −9% in the assay with Kv3.2 mRNA (anteromedial thalamic nucleus), “+16%” with Kv3.2 mRNA (prelimbic cortex) and “+13%” in the assay on Kv3.2 mRNA (primary motor cortex). Further, the “Kv3.2 mRNA expression change after chronic intermittent PCP” value in the assay with Kv3.2 mRNA (regions other than prelimbic cortex, primary motor cortex, anteromedial thalamic nucleus) is “No significant changes were observed”.

Consider `O=C(CCCN1CCC(O)(c2ccc(Cl)cc2)CC1)c1ccc(F)cc1` [haloperidol], for which, in the assay on schizophrenia, the “action against the negative symptoms and cognitive dysfunction of schizophrenia” value is listed as “ineffective”; the “attenuating the positive symptoms of schizophrenia” value is listed as “effective”.
